Test results as given in PubChem BioAssay AID330 (DTP/NCI, 2004).
“And” between values parts separate entries of the source, which are not always exact repeats. Equal values may be shown once. Inconclusive results and toxic doses are left out.

Test system: P388 leukemia ip, CD2F1 mice, survival T/C
Assay: NCI In Vivo Anticancer Drug Screen. Data for tumor model P388 Leukemia (intraperitoneal) in CD2F1 (CDF1) mice
Details: endpoint: median survival time, higher = longer survival
Procedure, shortened: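 Mice carrying the transplanted tumor received test compound or vehicle. Survival was recorded in each group, and the value is the treated-group measurement divided by that of the vehicle-treated control group.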

Structure (SMILES): O=C1CCCCCCCCCCC1C(O)(C(F)(F)F)C(F)(F)F (centres undefined)
- T/C (dose: 100.0 mg/kg/injection, schedule: Q04DX003 (ip), vehicle: saline with Tween-80): 100 % of control
- T/C (dose: 200.0 mg/kg/injection, schedule: Q04DX003 (ip), vehicle: saline with Tween-80): 90 % of control
- T/C (dose: 400.0 mg/kg/injection, schedule: Q04DX003 (ip), vehicle: saline with Tween-80): 100 % of control

Structure (SMILES): CC(C)CC(N)C(=O)OCN1C(=O)C2C3C=CC(C2C1=O)C1C2C(=O)N(COC(=O)C(N)CC(C)C)C(=O)C2C31 (centres undefined)
- T/C (dose: 12.5 mg/kg/injection, schedule: Q01DX009 (ip), vehicle: saline): 102 % of control and 105 % of control
- T/C (dose: 25.0 mg/kg/injection, schedule: Q01DX009 (ip), vehicle: saline): 105 % of control and 108 % of control
- T/C (dose: 50.0 mg/kg/injection, schedule: Q01DX009 (ip), vehicle: saline): 109 % of control and 119 % of control
- T/C (dose: 100.0 mg/kg/injection, schedule: Q01DX009 (ip), vehicle: saline): 162 % of control and 177 % of control

Structure (SMILES): CSc1nc(C)cc(N)n1
- T/C (dose: 12.5 mg/kg/injection, schedule: Q04DX003 (ip), vehicle: Klucel (hydroxypropylcellulose) (HPC)): 115 % of control
- T/C (dose: 25.0 mg/kg/injection, schedule: Q04DX003 (ip), vehicle: Klucel (hydroxypropylcellulose) (HPC)): 99 % of control
- T/C (dose: 50.0 mg/kg/injection, schedule: Q04DX003 (ip), vehicle: Klucel (hydroxypropylcellulose) (HPC)): 99 % of control
- T/C (dose: 100.0 mg/kg/injection, schedule: Q04DX003 (ip), vehicle: Klucel (hydroxypropylcellulose) (HPC)): 103 % of control

Structure (SMILES): Cc1c2oc3c(C)c(N)cc(C(=O)NC4C(=O)NC(C(C)C)C(=O)N5CCCC5C(=O)N(C)CC(=O)N(C)C(C(C)C)C(=O)OC4C)c3nc-2c(C(=O)NC2C(=O)NC(C(C)C)C(=O)N3CCCC3C(=O)N(C)CC(=O)N(C)C(C(C)C)C(=O)OC2C)c(N)c1=O (centres undefined)
- T/C (dose: 0.01 mg/kg/injection, schedule: Q01DX009 (ip), vehicle: Klucel (hydroxypropylcellulose) (HPC)): 102 % of control
- T/C (dose: 0.02 mg/kg/injection, schedule: Q01DX009 (ip), vehicle: Klucel (hydroxypropylcellulose) (HPC)): 110 % of control
- T/C (dose: 0.04 mg/kg/injection, schedule: Q01DX009 (ip), vehicle: Klucel (hydroxypropylcellulose) (HPC)): 115 % of control
- T/C (dose: 0.08 mg/kg/injection, schedule: Q01DX009 (ip), vehicle: Klucel (hydroxypropylcellulose) (HPC)): 93 % of control
- T/C (dose: 0.3 mg/kg/injection, schedule: Q01DX009 (ip), vehicle: Klucel (hydroxypropylcellulose) (HPC)): 190 % of control

Structure (SMILES): Clc1ccccc1/C=C/c1ccnnc1
- T/C (dose: 25.0 mg/kg/injection, schedule: Q01DX001 (ip), vehicle: saline): 96 % of control
- T/C (dose: 50.0 mg/kg/injection, schedule: Q01DX001 (ip), vehicle: saline): 95 % of control
- T/C (dose: 100.0 mg/kg/injection, schedule: Q01DX001 (ip), vehicle: saline): 95 % of control
- T/C (dose: 100.0 mg/kg/injection, schedule: Q01DX001 (ip), vehicle: suspension in saline): 101 % of control
- T/C (dose: 200.0 mg/kg/injection, schedule: Q01DX001 (ip), vehicle: suspension in saline): 97 % of control
- T/C (dose: 400.0 mg/kg/injection, schedule: Q01DX001 (ip), vehicle: suspension in saline): 97 % of control

Structure (SMILES): CC(C)NC(=O)OCc1c(COC(=O)NC(C)C)c(-c2ccc(Cl)c(Cl)c2)n2c1C[C@@H](OC(=O)CCC(=O)O)C2 (tested in a mixture with another compound)
- T/C (dose: 12.5 mg/kg/injection, schedule: Q01DX005 (ip), vehicle: water): 106 % of control and 107 % of control
- T/C (dose: 25.0 mg/kg/injection, schedule: Q01DX005 (ip), vehicle: water): 107 % of control and 108 % of control
- T/C (dose: 50.0 mg/kg/injection, schedule: Q01DX005 (ip), vehicle: water): 111 % of control and 123 % of control
- T/C (dose: 50.0 mg/kg/injection, schedule: Q04DX002 (ip), vehicle: water): 103 % of control
- T/C (dose: 100.0 mg/kg/injection, schedule: Q04DX002 (ip), vehicle: water): 111 % of control
- T/C (dose: 200.0 mg/kg/injection, schedule: Q04DX002 (ip), vehicle: water): 107 % of control

Structure (SMILES): CC1C(O)C2(Oc3cc4c(c5c3[C@@H](CC5O)[C@H]2C)CCC2Cc3nc5c(nc3C[C@@]42C)CC2CCC3C4=C[C@H]6O[C@@]7(O[C@@](C)(CO)C[C@@H]7O)C(C)[C@@]6(O)[C@]4(C)[C@@H](O)CC3[C@]2(C)C5)OC1(C)C (some centres undefined)
- T/C (dose: 12.5 micrograms/kg/injection, schedule: Q01DX009 (ip), vehicle: saline + alcohol): 107 % of control
- T/C (dose: 25.0 micrograms/kg/injection, schedule: Q01DX009 (ip), vehicle: saline + alcohol): 100 % of control
- T/C (dose: 50.0 micrograms/kg/injection, schedule: Q01DX009 (ip), vehicle: saline + alcohol): 107 % of control
- T/C (dose: 100.0 micrograms/kg/injection, schedule: Q01DX009 (ip), vehicle: saline + alcohol): 109 % of control

Structure (SMILES): O=C1N=NC2=C1c1c3ccccc3c(O)n1CC2
- T/C (dose: 25.0 mg/kg/injection, schedule: Q01DX005 (ip), vehicle: saline with Tween-80): 99 % of control
- T/C (dose: 50.0 mg/kg/injection, schedule: Q01DX005 (ip), vehicle: saline with Tween-80): 101 % of control
- T/C (dose: 100.0 mg/kg/injection, schedule: Q01DX005 (ip), vehicle: saline with Tween-80): 95 % of control

Structure (SMILES): CC(=O)/C(=C\c1ccco1)C(=O)CCN(C)C
- T/C (dose: 60.0 mg/kg/injection, schedule: Q01DX005 (ip), vehicle: saline): 108 % of control and 109 % of control and 115 % of control
- T/C (dose: 120.0 mg/kg/injection, schedule: Q01DX005 (ip), vehicle: saline): 106 % of control and 118 % of control and 120 % of control
- T/C (dose: 240.0 mg/kg/injection, schedule: Q01DX005 (ip), vehicle: saline): 108 % of control and 115 % of control
- T/C (dose: 480.0 mg/kg/injection, schedule: Q01DX005 (ip), vehicle: saline): 101 % of control
